Data: patent US11680056B2, “MK2 inhibitors and uses thereof” (Xinthera, Inc., priority 2021, dated 2023)
Where two headings read alike, the source gives them in different places.

Key:
p38a/MK2 = p38a/MK2 (Homo sapiens (Human), UniProt P49137+Q16539); experiment: p38a/MK2 biochemical assay: activation of MK2 by p38, FITC-HSP27 peptide phosphorylation (IMAP FP); details: 10-point 1:3 dilution, 60 pM active p38a, 1 nM inactive MK2, 10 μM ATP, 2 h incubation
Procedure: (§1) Expression vectors of the recombinant MK2 and PRAK kinases were constructed by cloning of the codon optimized gene sequences of MK2 (Uniprot ID P49137, amino acid fragment F46-H400), or PRAK (Uniprot ID Q81W41, amino acid fragment M1-Q471) into pGEX-4T1 (GE) for over expression of these kinases with N-terminal GST-tag. Protein expression was carried out in E. coli BL21 by growing the hosts in TB medium, induction of protein expression with 0.5 mM IPTG at approximate 0.8 OD600, and incubation of the cultures at 18° C. for 14-20 hours afterwards. The harvested cells were resuspended in […] of Lysis buffer (50 mM Tris-HCl, pH 8.0, 500 mM NaCl, 1 mM DTT, 5% glycerol, and 1 mM PMSF) per gram of wet cell mass and homogenized at 4° C. in a microfluidizer (ATS, Suzhou, China) at 14,000 psi pressure, 3 passes. The cell lysates were clarified by centrifugation and the supernatants containing the GST-fusion proteins were purified by affinity chromatography using GSH-Sepharose (GE) gravity flow columns pre-equilibrated in Buffer A (50 mM Tris-HCl, pH 8.0, 500 mM NaCl, 1 mM DTT, and 5% glycerol). After thorough washing of the columns with Buffer A, the bound GST-proteins were eluted by Buffer B (50 mM Tris, pH 8.0, 500 mM NaCl, 1 mM DTT, 5% glycerol, 10 mM glutathione), followed by size-exclusion purification on Superdex 200 column equilibrated in Buffer A. The purified proteins were concentrated to approximately 1 mg/ml and stored at −80° C.
This study evaluates the inhibitory potency of invention compound on p38/MK2 pathway vs p38/PRAK pathway. More specially the compound concentration (IC50) was determined that inhibited half of the maximal activation of MK2 or PRAK by p38. MK2 activation study was set up without or with a serial of 10-point 1:[…], and PRAK activation study was set up without or with a serial of 10-point 1:3 dilution of invention compound at top dose of 300 μM. The MK2 and PRAK activity were determined by the phosphorylation level of HSP27 peptide conjugated with FITC.
(§2) After 2 h incubation of the reaction mixture with various concentration of invention compound (200 nL), 60 μL 1×IMAP solution Mixture (Molecular Devices, Cat R8127) was added to the reaction mixture and incubated for another half hour. The signal was then read by Synergy™ Neo2 Multi-Mode Microplate Reader with filter setting (Ex/Em=485 nm/FITC FP-P pol 528 nm & FITC FP-S pol 528 nm)
(§3) The signal was then normalized to vehicle control and fitted in Xfit to generate IC50. The selectivity of MK2 over PRAK was calculated by the formular Selectivity=IC50 of PRAK/IC50 of MK2.

p38a/PRAK = p38a/PRAK (Homo sapiens (Human), UniProt Q16539); experiment: p38a/PRAK biochemical assay: activation of PRAK by p38, FITC-HSP27 peptide phosphorylation (IMAP FP); details: 10-point 1:3 dilution, top dose 300 μM; 60 pM active p38a, 1 nM inactive PRAK, 10 μM ATP, 2 h incubation; read-out: p38a/PRAK Enzyme pIC50 (converted)
Procedure: as §1
This study evaluates the inhibitory potency of invention compound on p38/MK2 pathway vs p38/PRAK pathway. More specially the compound concentration (IC50) was determined that inhibited half of the maximal activation of MK2 or PRAK by p38. MK2 activation study was set up without or with a serial of 10-point 1:3 dilution of invention compound at top dose of […], and PRAK activation study was set up without or with a serial of 10-point 1:3 dilution of invention compound at top dose of 300 μM. The MK2 and PRAK activity were determined by the phosphorylation level of HSP27 peptide conjugated with FITC.
as §2, §3

[1] = top dose 10 μM, read-out: p38a/MK2 (10 μM) Enzyme pIC50 (converted)

Chain of p38a/PRAK (Q16539 whole entry): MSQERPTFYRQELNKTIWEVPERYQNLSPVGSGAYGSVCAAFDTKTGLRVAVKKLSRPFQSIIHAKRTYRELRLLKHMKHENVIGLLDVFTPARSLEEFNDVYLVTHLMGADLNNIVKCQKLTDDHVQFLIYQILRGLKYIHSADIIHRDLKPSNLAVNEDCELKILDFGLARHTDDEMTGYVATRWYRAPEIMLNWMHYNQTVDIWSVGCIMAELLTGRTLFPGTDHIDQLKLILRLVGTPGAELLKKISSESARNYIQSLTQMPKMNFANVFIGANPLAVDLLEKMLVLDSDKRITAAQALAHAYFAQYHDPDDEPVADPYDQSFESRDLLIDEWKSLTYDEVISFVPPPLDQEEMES
Chain of p38a/MK2 (P49137 46-400): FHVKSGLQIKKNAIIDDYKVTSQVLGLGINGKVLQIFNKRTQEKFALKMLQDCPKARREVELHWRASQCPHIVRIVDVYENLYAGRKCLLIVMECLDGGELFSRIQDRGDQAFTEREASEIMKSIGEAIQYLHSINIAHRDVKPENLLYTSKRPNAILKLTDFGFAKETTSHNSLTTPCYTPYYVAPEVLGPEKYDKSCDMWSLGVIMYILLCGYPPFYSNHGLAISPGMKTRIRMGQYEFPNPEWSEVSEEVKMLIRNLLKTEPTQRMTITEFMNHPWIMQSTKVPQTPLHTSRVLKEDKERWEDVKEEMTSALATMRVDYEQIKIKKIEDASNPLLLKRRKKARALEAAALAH
Chain of p38a/MK2 (Q16539 whole entry, the tested form may be a part): as the sequence (Q16539 whole entry) above

IC50 (p38a/MK2; [1])	IC50 (p38a/MK2; top dose 1 μM, read-out: p38a/MK2 (1 μM) Enzyme pIC50 (converted))	SMILES	p38a/MK2 (10 μM) Enzyme pIC50 (p38a/MK2; top dose 10 μM)	IC50 (p38a/PRAK)
–	–	Cc1cnc(-c2nc(C(C)(C)O)cs2)cc1-n1c(C)cc(OCc2ncc(F)cc2F)c(Cl)c1=O (atropisomer, axis not shown) [Example 2, 3-chloro-4-[(3,5-difluoropyridin-2-yl)methoxy]-2′-[4-(2-hydroxypropan-2-yl)-1,3-thiazol-2-yl]-5′,6-dimethyl-[1,4′-bipyridin]-2-one]	7.5	3.98 µM
0.02 µM	–	Cc1cnc(-c2ccnc(C3(O)CC3)n2)cc1-n1c(C)cc(OCc2ncc(F)cc2F)c(Cl)c1=O (atropisomer, axis not shown) [Example 3, 3-chloro-4-[(3,5-difluoropyridin-2-yl)methoxy]-2′-[2-(1-hydroxycyclopropyl)pyrimidin-4-yl]-5′,6-dimethyl-[1,4′-bipyridin]-2-one]	–	5.01 µM
–	–	Cc1cnc(-c2ccnc(C(C)(C)CO)n2)cc1-n1c(C)cc(OCc2ncc(F)cc2F)c(Cl)c1=O (atropisomer, axis not shown) [Example 4, 3-chloro-4-[(3,5-difluoropyridin-2-yl)methoxy]-2′-[2-(1-hydroxy-2-methylpropan-2-yl)pyrimidin-4-yl]-5′,6-dimethyl-[1,4′-bipyridin]-2-one]	7.8	7.94 µM
–	–	Cc1cnc(-c2ccnc(C(C)(C)C(F)F)n2)cc1-n1c(C)cc(OCc2ncc(F)cc2F)c(Cl)c1=O (atropisomer, axis not shown) [Example 5, 3-chloro-2′-[2-(1,1-difluoro-2-methylpropan-2-yl)pyrimidin-4-yl]-4-[(3,5-difluoropyridin-2-yl)methoxy]-5′,6-dimethyl-[1,4′-bipyridin]-2-one]	7.8	3.16 µM
0.501 µM	–	COc1cnc(-c2ccnc(C(C)(C)O)n2)cc1-n1c(C)cc(OCc2ncc(F)cc2F)c(Cl)c1=O (atropisomer, axis not shown) [Example 7, 3-chloro-4-[(3,5-difluoropyridin-2-yl)methoxy]-2′-[2-(2-hydroxypropan-2-yl)pyrimidin-4-yl]-5′-methoxy-6-methyl-[1,4′-bipyridin]-2-one]	–	63.1 µM
–	–	Cc1cnc(-c2nc(C(C)(C)O)cs2)cc1-n1c(C)cc(OCc2ncc(F)cc2F)cc1=O (atropisomer, axis not shown) [Example 8, 4-[(3,5-difluoropyridin-2-yl)methoxy]-2′-[4-(2-hydroxypropan-2-yl)-1,3-thiazol-2-yl]-5′,6-dimethyl-[1,4′-bipyridin]-2-one]	<5.0	> 316 µM
–	–	Cc1cnc(-c2cc(C3CC3)nc(C(C)(C)O)n2)cc1-n1c(C)cc(OCc2ncc(F)cc2F)c(Cl)c1=O (atropisomer, axis not shown) [Example 10, 3-chloro-2′-[6-cyclopropyl-2-(2-hydroxypropan-2-yl)pyrimidin-4-yl]-4-[(3,5-difluoropyridin-2-yl)methoxy]-5′,6-dimethyl-[1,4′-bipyridin]-2-one]	5.8	5.01 µM
–	–	Cc1cnc(-c2cccc([C@](C)(O)CO)n2)cc1-n1c(C)cc(OCc2ncc(F)cc2F)c(Cl)c1=O (atropisomer, axis not shown) [Example 14, 3-chloro-4-[(3,5-difluoropyridin-2-yl)methoxy]-2′-[6-(1,2-dihydroxypropan-2-yl)pyridin-2-yl]-5′,6-dimethyl-[1,4′-bipyridin]-2-one]	7.7	20 µM
–	–	Cc1cnc(-c2ccnc(C(C)(C)O)n2)cc1-n1c(C)cc(COc2ncc(F)cc2F)c(Cl)c1=O (atropisomer, axis not shown) [Example 15, 3-chloro-4-{[(3,5-difluoropyridin-2-yl)oxy]methyl}-2′-[2-(2-hydroxypropan-2-yl)pyrimidin-4-yl]-5′,6-dimethyl-[1,4′-bipyridin]-2-one]	5.4	158 µM
–	–	Cc1cnc(-c2cccc([C@H](O)CO)n2)cc1-n1c(C)cc(OCc2ncc(F)cc2F)c(Cl)c1=O (atropisomer, axis not shown) [Example 16, 3-chloro-4-[(3,5-difluoropyridin-2-yl)methoxy]-2′-[6-(1,2-dihydroxyethyl)pyridin-2-yl]-5′,6-dimethyl-[1,4′-bipyridin]-2-one]	7.4	15.8 µM
–	0.002 µM	Cc1cnc(-c2ccnc(C(C)(C)O)c2F)cc1-n1c(C)cc(OCc2ncc(F)cc2F)c(Cl)c1=O (atropisomer, axis not shown) [Example 56A, 3-chloro-4-[(3,5-difluoropyridin-2-yl)methoxy]-1-[3′-fluoro-2′-(2-hydroxypropan-2-yl)-5-methyl-[2,4′-bipyridin]-4-yl]-6-methylpyridin-2-one]	–	1.58 µM
–	–	Cc1cnc(-n2nc(C(C)(C)O)cc2C)cc1-n1c(C)cc(OCc2ncc(F)cc2F)c(Cl)c1=O (single isomer, unassigned) [Example 19A, rel-3-chloro-4-((3,5-difluoropyridin-2-yl)methoxy)-2′-(3-(2-hydroxypropan-2-yl)-5-methyl-1H-pyrazol-1-yl)-5′,6-dimethyl-2H-[1,4′-bipyridin]-2-one]	–	5.01 µM
–	–	Cc1cnc(-n2nc(C(C)(C)O)cc2C)cc1-n1c(C)cc(OCc2ncc(F)cc2F)c(Cl)c1=O (single isomer, unassigned) [Example 19B, rel-3-chloro-4-((3,5-difluoropyridin-2-yl)methoxy)-2′-(3-(2-hydroxypropan-2-yl)-5-methyl-1H-pyrazol-1-yl)-5′,6-dimethyl-2H-[1,4′-bipyridin]-2-one]	–	> 316 µM
–	–	Cc1cnc(-n2nc(C(C)(C)O)cc2C2CC2)cc1-n1c(C)cc(OCc2ncc(F)cc2F)c(Cl)c1=O (single isomer, unassigned) [Example 20A, rel-3-chloro-2′-[5-cyclopropyl-3-(2-hydroxypropan-2-yl)pyrazol-1-yl]-4-[(3,5-difluoropyridin-2-yl)methoxy]-5′,6-dimethyl-[1,4′-bipyridin]-2-one]	–	5.01 µM
–	–	Cc1cnc(-n2nc(C(C)(C)O)cc2C2CC2)cc1-n1c(C)cc(OCc2ncc(F)cc2F)c(Cl)c1=O (single isomer, unassigned) [Example 20B, rel-3-chloro-2′-[5-cyclopropyl-3-(2-hydroxypropan-2-yl)pyrazol-1-yl]-4-[(3,5-difluoropyridin-2-yl)methoxy]-5′,6-dimethyl-[1,4′-bipyridin]-2-one]	–	> 316 µM
–	–	Cc1cnnc(COc2cc(C)n(-c3cc(-c4ccnc(C(C)(C)O)n4)ncc3C)c(=O)c2Cl)c1 (single isomer, unassigned) [Example 28B, rel-3-chloro-2′-[2-(2-hydroxypropan-2-yl)pyrimidin-4-yl]-5′,6-dimethyl-4-[(5-methylpyridazin-3-yl)methoxy]-[1,4′-bipyridin]-2-one]	–	> 316 µM
–	–	Cc1nn(-c2ccnc(C(C)(C)O)n2)cc1-n1c(C)cc(OCc2ncc(F)cc2F)c(Cl)c1=O [Example 30, 3-chloro-4-[(3,5-difluoropyridin-2-yl)methoxy]-1-{1-[2-(2-hydroxypropan-2-yl)pyrimidin-4-yl]-3-methylpyrazol-4-yl}-6-methylpyridin-2-one]	–	25.1 µM
